The values that follow come from US20250011781A1, “METHODS AND COMPOSITIONS TARGETING NUCLEUS ACCUMBENS-ASSOCIATED PROTEIN-1 FOR TREATMENT OF AUTOIMMUNE DISORDERS AND CANCERS” (THE TEXAS A&M UNIVERSITY SYSTEM, priority 2021, published 2025).

One test has as its system mouse CD8+ T cells. Description: mouse CD8+ T cells cultured in CM from NAC1 KO B16-OVA cells supplemented with LA. The format is cell-based. Particulars: 2 mM or 5 mM LA. The procedure:
Next, mouse CD8^+ T cells in the CM from NAC1 KO mouse B16-OVA cells were cultured and the medium was supplemented with or without 2 mM or 5 mM LA. The addition of LA reduced the production of cytokines including TNF-alpha and IFN-gamma and increased the expression of PD-1 and TIM-3 of CD8^+ T cells (FIGS. 9A-9D). […] In parallel, NAC1 KO tumor cells were transfected with an LDHA expression retroviral vector or a retroviral backbone to overexpress LDHA in NAC1 KO B16-OVA. The mouse CD8^+ T cells in the CM were cultured from NAC1 KO B16-OVA cells overexpressing LDHA (NAC1 KO LDHA OE) or an empty control (NAC1 KO Mock). The overexpression of LDHA conferred NAC1 KO mouse tumor cells with the ability to suppress the production of cytokines and increased expression of PD-1 (FIGS. 9I-9L) and apoptosis (FIGS. 9M-9P) of mouse cytotoxic CD8^+ T cells.
In vitro analysis of CD8^+ T cells. For cytotoxicity analysis, after 24 hours of activation 5×10^5 CD8^+ T cells were cultured with WT B16-OVA and NAC1 KO B16-OVA tumor cells in the ratio of 1:5 and 1:10 respectively. Cytotoxicity was measured by the CytoTox 96 Non-Radioactive Cytotoxicity Assay from Promega (#G1780, Madison, Wisconsin, USA). For cytokine expression analysis, the CD8^+ T cells were cultured with the conditional medium (CM) that was collected from WT B16-OVA and NAC1 KO B16-OVA melanoma cells for 12 hours. Before harvesting the cells, the cells were blocked with the Monensin Solution from BioLegend (#420701, San Diego, California, USA) for 4 hours. For apoptosis analysis, after 12 hours of activation the CD8^+ T cells were incubated with the CM that was collected from WT B16-OVA and NAC1 KO B16-OVA cells for 12 hours, in the absence or presence of L-LA from Sigma-Aldrich (St Louis, MI). […]
Flow Cytometric analysis. […] Stained cell populations were acquired by LSRFortessa from BD Biosciences (Franklin, New Jersey, USA), and the results were analyzed by using FlowJo software from Tree Star (Ashland, Oregon, USA).

A further test concerns the target T1, NAC1 (Homo sapiens, UniProt Q96RE7).
T1 sequence (Q96RE7 1-527): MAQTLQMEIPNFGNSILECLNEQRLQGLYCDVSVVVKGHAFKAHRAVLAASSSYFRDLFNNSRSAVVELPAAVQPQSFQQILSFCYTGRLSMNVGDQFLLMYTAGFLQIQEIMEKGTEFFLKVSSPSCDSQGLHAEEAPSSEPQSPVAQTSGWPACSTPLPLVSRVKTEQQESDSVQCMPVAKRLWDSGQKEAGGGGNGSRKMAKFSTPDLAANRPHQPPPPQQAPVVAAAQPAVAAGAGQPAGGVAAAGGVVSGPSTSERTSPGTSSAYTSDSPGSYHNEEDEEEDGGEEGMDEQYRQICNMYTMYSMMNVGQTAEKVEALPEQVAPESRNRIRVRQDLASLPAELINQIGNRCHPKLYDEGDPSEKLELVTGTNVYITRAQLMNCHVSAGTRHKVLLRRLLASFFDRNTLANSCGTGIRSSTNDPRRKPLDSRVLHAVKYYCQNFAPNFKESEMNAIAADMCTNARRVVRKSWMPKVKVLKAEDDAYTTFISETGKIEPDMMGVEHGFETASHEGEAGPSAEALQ
Particulars: cited from earlier work.

The next test has as its system tumor growth. Particulars: cited from earlier work.
A further test has as its system Tregs. As to the kind of experiment: treatment of Tregs with pro-inflammatory cytokines. The format is cell-based, mouse. The procedure:
T cell culture. T cells were cultured in 48-well plates containing 1 ml RPMI 1640 (Invitrogen) with 10% fetal calf serum (Omega Scientific, CA). T cell isolation kits including mouse CD4^+ (#130-104-454), CD8a^+ (#130-104-075) and CD4^+ CD25^+ Treg (#130-091-041), T cell activation/expansion kit (#130-093-627) and Treg expansion kit (#130-095-925) were purchased from the Miltenyi Biotec (Auburn, CA). Recombinant mouse TGF-β (#763104), IL-10 (#575106), and TNF-α (#575206) were obtained from BioLegend (San Diego, CA).

On to `CC(O)C(=O)O` (stereo not drawn) [LA, lactic acid], for which, in the test with mouse CD8+ T cells, the “apoptosis determined by Annexin V staining” value is given as “higher percentage of apoptosis”; the “expression of PD-1 and TIM-3 of CD8+ T cells” value is reported as “increased”; the “production of cytokines including TNF-alpha and IFN-gamma” value is recorded as “reduced”.
Consider `CC(C)(C)c1ccc(OCC(=O)NCCNC(=O)COc2ccc(C(C)(C)C)cc2)cc1` [NIC3], for which, at NAC1, the NAC1 homodimerization result is reported as “can interrupt NAC1 homodimerization”. In addition, the antitumor activity result in the test with tumor growth is “shows antitumor activity”.
For TNF-α, in the test on Tregs, the “FoxP3 and acetylated FoxP3 in Tregs” value is “evident downregulation”; the “NAC1 expression in Tregs” value is recorded as “robust upregulation”.

B1: IL-10: recombinant mouse cytokine from BioLegend (protein, UniProt P18893 19-178, looked up)
Interleukin-10: SRGQYSREDNNCTHFPVGQSHMLLELRTAFSQVKTFFQTKDQLDNILLTDSLMQDFKGYLGCQALSEMIQFYLVEVMPQAEKHGPEIKEHLNSLGEKLKTLRMRLRRCHRFLPCENKSKAVEQVKSDFNKLQDQGVYKAMNEFDIFINCIEAYMMIKMKS
As to B1, in the test on Tregs, the “FoxP3 and acetylated FoxP3 in Tregs” value is reported as “evident downregulation”; the “NAC1 expression in Tregs” value is recorded as “robust upregulation”.
